Measured values: patent US7855205B2, “Pyrimidinyl substituted fused-pyrrolyl compounds useful in treating kinase disorders” (Janssen Pharmaceutica NV, priority 2004, dated 2010)
Like-named read-outs stand apart in the source and are kept apart here.

Legend:
[1] = target: T1, VEGF-R2 (Rattus norvegicus, UniProt O08775); experiment: VEGF-R2 Screening Assay; type: biochemical; settings: 33P-γ-ATP incorporation, 10 μM ATP
T1 construct: polyhistidine (N)
Procedure: Then 1 μL of test compound stock in 100% DMSO was added to the wells resulting in a final concentration of 1% DMSO in the reaction with a 100 μL final reaction volume. The CDK1:Cyclin-B protein was then diluted in 50 mM Tris-HCl pH=8.0, 0.1% BSA at a concentration of 1 ng per μL and 30 μL (30 ng enzyme per test well) was added to each well to initiate the reaction. The reaction was incubated for one hour at 30° C. At the end of the 1 h incubation, the reaction was terminated by aspirating the mixture from the plate and washing the wells twice with PBS containing 100 mM EDTA. The histone-H1 biotinylated peptide substrate became immobilized on the Flashplate™ and the incorporation of ^33P-γ-ATP was measured by reading the plate on a scintillation counter. Inhibition of the enzymatic activity of CDK1 was measured by observing a reduced amount of ^33P-γ-ATP incorporated into the immobilized peptide. The VEGF-R kinase assay was carried out using the CDK kinase assay procedure except that the enzyme was replaced with the VEGF-R2 fusion protein containing a polyhistidine tag at the N-terminus followed by amino acids 786-1343 of the rat VEGF-R2 kinase domain (GenBank Accession #U93306).

[2] = target: T2, Aurora-A (Mus musculus, UniProt P97477); experiment: Aurora-A Screening Assay; type: biochemical, murine; settings: 33P-γ-ATP incorporation, 10 μM ATP
T2 construct: made in house; host or cells: sf9 insect cells
T2 sequence (P97477 1-395): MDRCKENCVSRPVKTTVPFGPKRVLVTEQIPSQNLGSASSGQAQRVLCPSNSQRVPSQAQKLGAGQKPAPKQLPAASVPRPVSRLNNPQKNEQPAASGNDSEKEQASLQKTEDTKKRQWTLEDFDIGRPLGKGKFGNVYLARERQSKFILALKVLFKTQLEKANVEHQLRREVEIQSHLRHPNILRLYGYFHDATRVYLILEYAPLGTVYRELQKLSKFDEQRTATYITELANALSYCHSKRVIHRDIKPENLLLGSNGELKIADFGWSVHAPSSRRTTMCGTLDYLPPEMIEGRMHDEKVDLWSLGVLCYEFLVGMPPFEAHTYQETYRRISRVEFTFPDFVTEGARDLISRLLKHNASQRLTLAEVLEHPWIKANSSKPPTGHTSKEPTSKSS
Procedure: (§1) A kinase reaction mixture was prepared containing 50 mM Tris-HCl pH=8, 10 mM MgCl2, 0.1 mM […], 1 mM DTT, 10 μM ATP, 0.025 μM biotinylated histone-HI peptide substrate and […] per well ^33P-γ-ATP (2000-3000 Ci/mmol). 70 μL of the kinase reaction mixture was dispensed into the well of a streptavidin coated FlashPlate™ (Cat. # SMP103, NEN, Boston, Mass.). Then 1 μL of test compound stock in 100% DMSO was added to the wells resulting in a final concentration of 1% DMSO in the reaction with a 100 μL final reaction volume.
(§2) The CDK1:Cyclin-B protein was then diluted in 50 mM Tris-HCl pH=8.0, 0.1% BSA at a concentration of 1 ng per μL and 30 μL (30 ng enzyme per test well) was added to each well to initiate the reaction. The reaction was incubated for one hour at 30° C. At the end of the 1 h incubation, the reaction was terminated by aspirating the mixture from the plate and washing the wells twice with PBS containing 100 mM EDTA. The histone-H1 biotinylated peptide substrate became immobilized on the Flashplate™ and the incorporation of ^33P-γ-ATP was measured by reading the plate on a scintillation counter. Inhibition of the enzymatic activity of CDK1 was measured by observing a reduced amount of ^33P-γ-ATP incorporated into the immobilized peptide.
The Aurora-A kinase assay was carried out using the CDK kinase assay procedure except that the enzyme was replaced with the full length protein encoding the murine Aurora-A (Accession# GB BC014711) expressed and purified from sf9 insect cells.
(§3) • VEGF-R2, HER2 and (Biotin)[…]-Amide • RET kinases • CDK1 (Biotin)[…]-Amide • Aurora-A kinase Biotin-[…]-Amide

[3] = target: T3, CDK1:Cyclin-B (Homo sapiens, UniProt P06493); experiment: CDK1 Screening Assay; type: biochemical; settings: 33P-γ-ATP incorporation, 10 μM ATP
T3 construct: purchased New England Biolabs, Beverly, Mass; 6020; host or cells: insect cells
Procedure: as §1, §2
The CDK1 used was isolated from insect cells expressing both the human CDK1 catalytic subunit and its positive regulatory subunit cyclin B (New England Biolabs, Beverly, Mass., Cat. #6020).
as §3

[4] = system: A375 malignant melanoma; experiment: Inhibition of cell proliferation (14C-thymidine incorporation), A375; type: cell-based, human
Procedure: (§4) The ability of a test compound to inhibit the proliferation of cell growth was determined by measuring incorporation of ^14C-labelled thymidine into newly synthesized DNA within the cells. This method was used on cell lines derived from carcinomas originating from several tissues such as HeLa cervical adenocarcinoma (American Type Culture Collection (ATCC), Virginia, Cat. #CCL-2), A375 malignant melanoma (ATCC CRL-1619), HCT-116 colon carcinoma (CCL-247). In this way the effect of a compound on cell growth of cells with many different phenotypes can be determined. Cells were trypsinized and counted and 3000-8000 cells were added to each well of a 96-well CytoStar tissue culture treated scintillating microplate (Amersham #RPNQ0160) in complete medium in a volume of 100 μL. Cells were incubated for 24 hours in complete medium at 37° C. in an atmosphere containing 5% CO2.
(§5) Next, 1 μL of test compound in 100% DMSO was added to the wells of the plate. DMSO only was added to control wells. Cells were incubated for 24 more hours in complete medium at 37° C. in an atmosphere containing 5% CO2. Methyl ^14C-thymidine 56 mCi/mmol (NEN #NEC568 or Amersham #CFA532) was diluted in complete medium and 0.2 uCi/well was added to each well of the CytoStar plate in a volume of 20 μl. The plate was incubated for 24 hours at 37° C. plus 5% CO2 in drug plus ^14C-thymidine. The contents of the plate discarded into a ^14C radioactive waste container by inverting the plate and the plate was washed twice with 200 μL PBS.
(§6) 200 μL of PBS is added to each well. The top of the plate was sealed with a transparent plate sealer and a white plate backing sealer (Packard #6005199) was applied to the bottom of the plate. The degree of methyl ^14C-thymidine incorporation was quantified on a Packard Top Count.

[5] = system: HeLa cervical adenocarcinoma; experiment: Inhibition of cell proliferation (14C-thymidine incorporation), HeLa; type: cell-based;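 note: HeLa cells in 96-well scintillating plates, compound for 24 h then 24 h more with 14C-thymidine, counting label built into new DNA against DMSO-only control wells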
[6] = system: HCT-116 colon carcinoma; experiment: Inhibition of cell proliferation (14C-thymidine incorporation), HCT-116; type: cell-based
Procedure: as §4, §5, §6

T3 sequence (P06493 whole entry): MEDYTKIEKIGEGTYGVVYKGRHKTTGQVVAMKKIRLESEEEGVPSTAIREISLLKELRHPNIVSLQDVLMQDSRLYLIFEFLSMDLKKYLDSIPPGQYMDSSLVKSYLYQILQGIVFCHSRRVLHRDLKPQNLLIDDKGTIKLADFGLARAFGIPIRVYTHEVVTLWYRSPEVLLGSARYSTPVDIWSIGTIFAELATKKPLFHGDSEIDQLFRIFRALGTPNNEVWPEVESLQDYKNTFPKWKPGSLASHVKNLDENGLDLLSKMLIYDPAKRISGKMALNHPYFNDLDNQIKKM
T3 sequence (P14635 whole entry partner): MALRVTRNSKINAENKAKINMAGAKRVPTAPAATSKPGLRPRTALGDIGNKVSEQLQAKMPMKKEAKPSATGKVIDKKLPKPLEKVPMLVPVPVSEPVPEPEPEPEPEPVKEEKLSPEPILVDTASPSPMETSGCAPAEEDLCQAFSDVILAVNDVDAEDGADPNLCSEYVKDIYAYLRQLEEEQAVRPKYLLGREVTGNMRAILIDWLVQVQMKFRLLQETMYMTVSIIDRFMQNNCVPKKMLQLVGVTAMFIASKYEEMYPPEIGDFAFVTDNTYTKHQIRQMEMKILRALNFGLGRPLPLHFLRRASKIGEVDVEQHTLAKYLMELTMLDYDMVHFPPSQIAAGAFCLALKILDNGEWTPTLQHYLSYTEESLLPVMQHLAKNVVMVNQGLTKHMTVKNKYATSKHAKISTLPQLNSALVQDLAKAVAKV
T1 sequence (O08775 786-1343): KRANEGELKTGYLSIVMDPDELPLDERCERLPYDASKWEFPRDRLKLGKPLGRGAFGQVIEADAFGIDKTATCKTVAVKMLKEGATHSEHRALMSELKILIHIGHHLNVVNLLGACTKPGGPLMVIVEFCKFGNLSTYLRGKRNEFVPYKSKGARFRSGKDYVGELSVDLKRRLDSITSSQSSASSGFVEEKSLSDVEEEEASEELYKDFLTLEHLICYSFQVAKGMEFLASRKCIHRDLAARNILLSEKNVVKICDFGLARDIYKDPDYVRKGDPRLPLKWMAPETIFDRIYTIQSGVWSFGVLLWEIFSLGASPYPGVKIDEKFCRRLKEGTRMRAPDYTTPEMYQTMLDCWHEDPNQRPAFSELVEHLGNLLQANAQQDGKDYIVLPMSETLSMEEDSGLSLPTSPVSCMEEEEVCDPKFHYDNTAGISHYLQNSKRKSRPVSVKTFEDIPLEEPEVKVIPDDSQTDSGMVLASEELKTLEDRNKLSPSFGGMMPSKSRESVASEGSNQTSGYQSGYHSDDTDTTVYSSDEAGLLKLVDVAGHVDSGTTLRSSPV

Row | IC50 [3] [µM] | IC50 ([4]; Homo sapiens, A-375) [µM] | IC50 ([5]; Homo sapiens) [µM] | IC50 ([6]; Homo sapiens, HCT-116, HCT116) [µM] | IC50 [4] [µM] | IC50 [5] [µM] | IC50 ([6]; HCT116) [µM] | SMILES | IC50 [1] [µM] | IC50 [2] [µM]
1 | 0.0373 | 0.0417 | 0.0411 | 0.0175 |  |  |  | c1cnc2[nH]cc(-c3ccnc(NC4CCOCC4)n3)c2c1 [Cpd 60, (Tetrahydropyran-4-yl)-[4-(1H-pyrrolo[2,3-b]pyridin-3-yl)-pyrimidin-2-yl]-amine] | 2.46 | 1.51
2 | 3.89 | 3.02 | 4.53 | 3.76 |  |  |  | CN(C)CCn1cc(-c2ccnc(N[C@H]3CC[C@H](O)CC3)n2)c2cccnc21 [Cpd 74, trans-4-{4-[1-(2-Dimethylaminoethyl)-1H-pyrrolo[2,3-b]pyridin-3-yl]-pyrimidin-2-ylamino}-cyclohexanol] |  | 
3 |  | ≥ 10 | 52.2 | ≥ 10 |  |  |  | Cn1cc(-c2ccnc(NC3CCCCC3)n2)c2cccnc21 [Cpd 66, Cyclohexyl-[4-(1-methyl-1H-pyrrolo[2,3-b]pyridin-3-yl)pyrimidin-2-yl]-amine] |  | 
4 | 7.02 | 3.95 | 4.16 | 3.51 |  |  |  | CNCCn1cc(-c2ccnc(N[C@H]3CC[C@H](O)CC3)n2)c2cccnc21 [Cpd 73, trans-4-{4-[1-(2-Methylaminoethyl)-1H-pyrrolo[2,3-b]pyridin-3-yl]-pyrimidin-2-ylamino}-cyclohexanol] |  | 
5 | 1.87 | 2.81 | 13.2 | 4.54 |  |  |  | Cc1cc(OCCN(C)C)ccc1Nc1nccc(-c2c[nH]c3ncccc23)n1 [Cpd 81, [4-(2-Dimethylamino-ethoxy)-2-methyl-phenyl]-[4-(1H-pyrrolo[2,3-b]pyridin-3-yl)-pyrimidin-2-yl]-amine] |  | 
6 | 2.02 |  |  |  | 2.81 | 1.99 | 1.58 | O=S(=O)(c1ccccc1)n1cc(-c2ccnc(N[C@H]3CC[C@H](O)CC3)n2)c2cccnc21 [Cpd 75, trans-4-[4-(1-Benzenesulfonyl-1H-pyrrolo[2,3-b]pyridin-3-yl)-pyrimidin-2-ylamino]-cyclohexanol] |  | 10
7 | 0.0223 | 0.448 | 0.467 | 0.277 |  |  |  | Clc1ccc(Nc2nccc(-c3c[nH]c4ncccc34)n2)c(Cl)c1 [Cpd 36, (2,4-Dichlorophenyl)-[4-(1H-pyrrolo[2,3-b]pyridin-3-yl)-pyrimidin-2-yl]-amine] |  | 1
8 | 1.65 | 7.15 | 9.51 | 4.46 |  |  |  | Cn1cc(-c2ccnc(N[C@H]3CC[C@H](O)CC3)n2)c2cccnc21 [Cpd 71, trans-4-[4-(1-Methyl-1H-pyrrolo[2,3-b]pyridin-3-yl)-pyrimidin-2-ylamino]-cyclohexanol] |  | 
9 | 1.35 | 0.298 | 0.21 | 0.157 |  |  |  | CN(C)CC(O)Cn1cc(-c2ccnc(N[C@H]3CC[C@H](O)CC3)n2)c2cccnc21 (relative stereo) [Cpd 76, trans-4-{4-[1-(3-Dimethylamino-2-hydroxy-propyl)-1H-pyrrolo[2,3-b]pyridin-3-yl]-pyrimidin-2-ylamino}-cyclohexanol] | 10 | 
10 | 2.31 | 4.54 | 2.58 | 3.87 |  |  |  | CNCCOc1ccc(Nc2nccc(-c3c[nH]c4ncccc34)n2)c(C)c1 [Cpd 80, [4-(2-Methylamino-ethoxy)-2-methyl-phenyl]-[4-(1H-pyrrolo[2,3-b]pyridin-3-yl)-pyrimidin-2-yl]-amine] | 10 | 
11 | 10.4 | 7.69 | 8.9 | 13.4 |  |  |  | CN(C)CCn1cc(-c2ccnc(NC3CCCCC3)n2)c2cccnc21 [Cpd 69, Cyclohexyl-{4-[1-(2-dimethylaminoethyl)-1H-pyrrolo[2,3-b]pyridin-3-yl]-pyrimidin-2-yl}-amine] |  | 
12 | 3.21 | 5.93 | 6.29 | 3.97 |  |  |  | OCCn1cc(-c2ccnc(NC3CCCCC3)n2)c2cccnc21 [Cpd 70, Cyclohexyl-{4-[1-(2-hydroxyethyl)-1H-pyrrolo[2,3-b]pyridin-3-yl]-pyrimidin-2-yl}-amine] |  | 

Row | SMILES | IC50 [3] [µM] | IC50 ([4]; Homo sapiens, A-375) [µM] | IC50 ([5]; Homo sapiens) [µM] | IC50 ([6]; Homo sapiens, HCT-116, HCT116) [µM] | IC50 [4] [µM] | IC50 [5] [µM] | IC50 ([6]; HCT116) [µM] | IC50 [1] [µM] | IC50 [2] [µM]
13 | CCc1ccccc1Nc1nccc(-c2c[nH]c3ncccc23)n1 [Cpd 32, (2-Ethylphenyl)-[4-(1H-pyrrolo[2,3-b]pyridin-3-yl)-pyrimidin-2-yl]-amine] | 0.068 | 0.217 | 0.292 | 0.254 |  |  |  | 1.47 | 0.396
14 | NC1CCN(c2nccc(-c3c[nH]c4ncccc34)n2)CC1 [Cpd 62, 1-[4-(1H-pyrrolo[2,3-b]pyridin-3-yl)-pyrimidin-2-yl]-piperidin-4-ylamine] | 0.5 | 0.622 | 1.08 | 0.525 |  |  |  | 2.67 | 0.762
15 | Cc1cccc(Nc2nccc(-c3c[nH]c4ncccc34)n2)c1 [Cpd 9, [4-(1H-Pyrrolo[2,3-b]pyridin-3-yl)-pyrimidin-2-yl]-m-tolyl-amine] | 0.057 | 0.34 |  | 0.25 |  |  |  | 0.0967 | 0.136
16 | Cc1cc(CCO)ccc1Nc1nccc(-c2c[nH]c3ncccc23)n1 [Cpd 44] |  | 0.00845 | 0.011 | 0.00398 |  |  |  | 0.493 | 0.142
17 | Cc1ccccc1Nc1nccc(-c2c[nH]c3ncccc23)n1 [Cpd 8, [4-(1H-Pyrrolo[2,3-b]pyridin-3-yl)-pyrimidin-2-yl]-o-tolyl-amine] | 0.0037 | 0.024 |  | 0.024 |  |  |  | 0.57 | 0.301
